Test results from patent US6727066B2, “Genes expressed in treated human C3A liver cell cultures” (Incyte Corporation, priority 2000, dated 2004).

System: human C3A liver cell cultures
Assay: Microarray differential expression of cDNAs in treated human C3A liver cell cultures
Assay type: cell-based
Conditions: change vs untreated C3A cells
Source text: Incyte clones represent template sequences derived from the LIFESEQ GOLD assembled human sequence database (Incyte Genomics). In cases where more than one clone was available for a particular template, the 5′-most clone in the template was used on the microarray. The GENEALBUM GEM series 1-6 microarrays (Incyte Genomics) contain 52,616 array elements which represent 17,472 annotated clusters and 35,144 unannotated clusters. The HUMAN GENOME GEM series 1-3 microarrays (Incyte Genomics) contain 28,626 array elements which represent 10,068 annotated clusters and 18,558 unannotated clusters. For the UNIGEM series microarrays (Incyte Genomics), Incyte clones were mapped to non-redundant Unigene clusters (Unigene database (build 46), NCBI; Shuler (1997) J Mol Med 75:694-698), and the 5′ clone with the strongest BLAST alignment (at least 90% identity and 100 bp overlap) was chosen, verified, and used in the construction of the microarray. The UNIGEM V microarray (Incyte Genomics) contains 7075 array elements which represent 4610 annotated genes and 2,184 unannotated clusters.
To construct microarrays, cDNAs were amplified from bacterial cells using primers complementary to vector sequences flanking the cDNA insert. […] Amplified cDNAs were then purified using […]-400 columns (APB). Purified cDNAs were immobilized on polymer-coated glass slides. Glass microscope slides (Corning, Corning N.Y.) were cleaned by ultrasound in 0.1% SDS and acetone, with extensive distilled water washes between and after treatments. Glass slides were etched in 4% hydrofluoric acid (VWR Scientific Products, West Chester Pa.), washed thoroughly in distilled water, and coated with 0.05% aminopropyl silane (Sigma Aldrich) in 95% ethanol. Coated slides were cured in a 110° C. oven. cDNAs were applied to the coated glass substrate using a procedure described in U.S. Pat. No. 5,807,522. One microliter of the cDNA at an average concentration of 100 ng/ul was loaded into the open capillary printing element by a high-speed robotic apparatus which then deposited about 5 nl of cDNA per slide.
Microarrays were UV-crosslinked using a […] UV-crosslinker (Stratagene), and then washed at room temperature once in 0.2% SDS and three times in distilled water. Non-specific binding sites were blocked by incubation of microarrays in 0.2% casein in phosphate buffered saline (Tropix, Bedford Mass.) for 30 minutes at 60° C. followed by washes in 0.2% SDS and distilled water as before.
Early confluent C3A cells (ATTC, Manassas Va.) were treated with captopril (0.5, 2, 48, and 60 μg/ml) for 1, 3, and 6 hours. Early confluent C3A cells were treated with enalapril (0.5, 2, 48, and 60 μg/ml) for 1, 3, and 6 hours. Early confluent C3A cells were treated with LY294002 (0.5, 2, 15, and 25 μg/ml) for 1, 3, and 6 hours. Early confluent C3A cells were starved of insulin for 3 days prior to treatment, then treated with LY294002 (10 μM) for 2, 24, 36, and 72 hours in the presence of insulin. Early confluent C3A cells were treated with DES (1, 10, and 100 μM) for 1, 3, and 6 hours. Early confluent C3A cells were treated with dexamethasone (1 and 20 μM) for 0, 2, 6, and 24 hours. Early confluent C3A cells were treated with MCA (0.5 and 10 μM) for 2, 6, and 24 hours. In all cases mRNA from untreated early confluent cells were prepared in parallel as described below.
Cells were harvested and lysed in 1 ml of TRIZOL reagent (5×10^6 cells/ml; Life Technologies). The lysates were vortexed thoroughly and incubated at room temperature for 2-3 minutes and extracted with 0.5 ml chloroform. The extract was mixed, incubated at room temperature for 5 minutes, and centrifuged at 15,000 rpm for 15 minutes at 4° C. The aqueous layer was collected and an equal volume of isopropanol was added.

For C[C@H](CS)C(=O)N1CCC[C@H]1C(=O)O [Captopril], the “expression level of cDNA clone 63038” value was −3.16, the “expression level of cDNA clone 118501” value was 4.36 and the “expression level of cDNA clone 160822” value was 2.5. For the same molecule, the “expression level of cDNA clone 211389” value was −2.52, the “expression level of cDNA clone 630625” value was 2.81 and the “expression level of cDNA clone 1315663” value was −2.84. The “expression level of cDNA clone 1368834” value was 2.47, the “expression level of cDNA clone 1379063” value was −4 and the “expression level of cDNA clone 1381654” value was 1.57. The “expression level of cDNA clone 1448718” value was −3.93, the “expression level of cDNA clone 1519431” value was 2.36 and the “expression level of cDNA clone 1559756” value was 1.56. The “expression level of cDNA clone 1619292” value was −4.3, the “expression level of cDNA clone 1696224” value was 3.28 and the “expression level of cDNA clone 1711151” value was 3.05. The “expression level of cDNA clone 1846209” value was 1.81, the “expression level of cDNA clone 1930235” value was 3.25 and the “expression level of cDNA clone 1998269” value was 2.99. The “expression level of cDNA clone 2055569” value was −3.33, the “expression level of cDNA clone 2055867” value was −2.61 and the “expression level of cDNA clone 2123516” value was 3.89. For the same molecule, the “expression level of cDNA clone 2360580” value was −2.71, the “expression level of cDNA clone 2446289” value was −2.15 and the “expression level of cDNA clone 2757583” value was 4.03. For the same molecule, the “expression level of cDNA clone 2769888” value was −2.01, the “expression level of cDNA clone 2820337” value was 2.29 and the “expression level of cDNA clone 2884613” value was 2.46. For the same molecule, the “expression level of cDNA clone 2912637” value was −2.38, the “expression level of cDNA clone 2921991” value was −5.21 and the “expression level of cDNA clone 2933775” value was 5.14. The “expression level of cDNA clone 3225977” value was 2.89, the “expression level of cDNA clone 3240708” value was 2.02 and the “expression level of cDNA clone 3381870” value was 2.62. For the same molecule, the “expression level of cDNA clone 3679667” value was −2.09, the “expression level of cDNA clone 3815422” value was −3.78 and the “expression level of cDNA clone 4107126” value was 2.88.
In the case of CCOC(=O)C(C)(C)Oc1ccc(Cl)cc1 [Clofibrate], the “expression level of cDNA clone 63038” value is reported as −3.95, the “expression level of cDNA clone 86390” value is reported as −2.83 and the “expression level of cDNA clone 118501” value is reported as 4.87. For the same molecule, the “expression level of cDNA clone 280932” value was −2.8, the “expression level of cDNA clone 341884” value was −2.32 and the “expression level of cDNA clone 348143” value was 2.11. The “expression level of cDNA clone 407032” value was −3.05, the “expression level of cDNA clone 460779” value was 2.26 and the “expression level of cDNA clone 630625” value was 2.53. For the same molecule, the “expression level of cDNA clone 758192” value was 3.11, the “expression level of cDNA clone 818192” value was 2.87 and the “expression level of cDNA clone 1308112” value was 2.19. For the same molecule, the “expression level of cDNA clone 1315663” value was −3.18, the “expression level of cDNA clone 1379063” value was −2.38 and the “expression level of cDNA clone 1448718” value was −2.95. The “expression level of cDNA clone 1464613” value was −2.39, the “expression level of cDNA clone 1511658” value was −3.56 and the “expression level of cDNA clone 1519683” value was −2.12. For the same molecule, the “expression level of cDNA clone 1559665” value was −4.058, the “expression level of cDNA clone 1619292” value was −3.07 and the “expression level of cDNA clone 1696224” value was 11.91. The “expression level of cDNA clone 1705208” value was 4.2, the “expression level of cDNA clone 1711151” value was 2.4 and the “expression level of cDNA clone 1838114” value was −2.65. For the same molecule, the “expression level of cDNA clone 1845046” value was −2.5, the “expression level of cDNA clone 1846463” value was 3.62 and the “expression level of cDNA clone 1890791” value was 2.7. The “expression level of cDNA clone 1920215” value was −2.59, the “expression level of cDNA clone 1922468” value was 3.03 and the “expression level of cDNA clone 1926883” value was 2.94. For the same molecule, the “expression level of cDNA clone 1930235” value was 2.73, the “expression level of cDNA clone 1958226” value was −2.52 and the “expression level of cDNA clone 1966517” value was −2.8. The “expression level of cDNA clone 1969563” value was 3.78, the “expression level of cDNA clone 1998269” value was 2.7 and the “expression level of cDNA clone 2042056” value was 2.5. The “expression level of cDNA clone 2055569” value was −2.76, the “expression level of cDNA clone 2123516” value was 8.29 and the “expression level of cDNA clone 2273944” value was 2.48. The “expression level of cDNA clone 2278688” value was −2.37, the “expression level of cDNA clone 2352645” value was 3.77 and the “expression level of cDNA clone 2365335” value was −2.67. For the same molecule, the “expression level of cDNA clone 2382192” value was −2.54, the “expression level of cDNA clone 2470485” value was −2.45 and the “expression level of cDNA clone 2740665” value was −2.54. The “expression level of cDNA clone 2757583” value was 2.8, the “expression level of cDNA clone 2769888” value was −2.79 and the “expression level of cDNA clone 2884613” value was 2.54. For the same molecule, the “expression level of cDNA clone 2890336” value was −2.38, the “expression level of cDNA clone 2921991” value was −3.1 and the “expression level of cDNA clone 2933775” value was 4. The “expression level of cDNA clone 2957205” value was 2.94, the “expression level of cDNA clone 2999855” value was 2.4 and the “expression level of cDNA clone 3038508” value was 2.57. For the same molecule, the “expression level of cDNA clone 3136857” value was −3.24, the “expression level of cDNA clone 3222802” value was 2.71 and the “expression level of cDNA clone 3380034” value was −3.15. For the same molecule, the “expression level of cDNA clone 3494714” value was −2.53, the “expression level of cDNA clone 4066764” value was −2.3 and the “expression level of cDNA clone 4087621” value was −3.55. For the same molecule, the “expression level of cDNA clone 4110976” value was 2.18, the “expression level of cDNA clone 4246966” value was 8.12 and the “expression level of cDNA clone 4287327” value was −3.47. The “expression level of cDNA clone 4721130” value was 4.25, the “expression level of cDNA clone 4795635” value was −2.38 and the “expression level of cDNA clone 5047895” value was −2.44. For the same molecule, the “expression level of cDNA clone 5077219” value was −2.63, the “expression level of cDNA clone 5398014” value was −2.67 and the “expression level of cDNA clone 5398701” value was −3.55. The “expression level of cDNA clone 5541949” value was 2.38.
CC/C(=C(/CC)c1ccc(O)cc1)c1ccc(O)cc1 [DES, Diethylstilbestrol] was tested, and the “expression level of cDNA clone 60123” value was 2.6, the “expression level of cDNA clone 172023” value was 2.85 and the “expression level of cDNA clone 437481” value was 2.24. The “expression level of cDNA clone 443991” value was 2.62, the “expression level of cDNA clone 510056” value was 2.73 and the “expression level of cDNA clone 891322” value was 3.81. For the same molecule, the “expression level of cDNA clone 970905” value was 2.25, the “expression level of cDNA clone 1272483” value was 2.51 and the “expression level of cDNA clone 1326255” value was −2.7. For the same molecule, the “expression level of cDNA clone 1956982” value was −2.13, the “expression level of cDNA clone 2055867” value was 2.97 and the “expression level of cDNA clone 2241825” value was −2.39. For the same molecule, the “expression level of cDNA clone 2311213” value was −2.34, the “expression level of cDNA clone 2545486” value was −2.49 and the “expression level of cDNA clone 2550767” value was 2.1. For the same molecule, the “expression level of cDNA clone 2956444” value was 2.1, the “expression level of cDNA clone 3222802” value was 2.4 and the “expression level of cDNA clone 4019706” value was 2.99. For the same molecule, the “expression level of cDNA clone 4287327” value was 2.66, the “expression level of cDNA clone 4715924” value was −2.21 and the “expression level of cDNA clone 5293028” value was −2.3. The “expression level of cDNA clone 5399371” value was −2.63, the “expression level of cDNA clone 293477” value (table row r18) was 2.83 and the “expression level of cDNA clone 293477” value (table row r23) was 2.
